Reference: PMC4389225, “Triaminopyrimidine is a fast-killing and long-acting antimalarial clinical candidate” (Nature Communications, 2015)

Experiments:
Dd2 = assay: [3H]-hypoxanthine incorporation assay, Dd2; type: cell-based, Plasmodium falciparum; details: Plasmodium falciparum, DD2
Experimental: (§1) 9 and 12 were tested for their antiplasmodial activity against a panel of Pf strains known to harbour mutations conferring resistance to novel agents under clinical development. Parasite growth inhibition is measured using the [3H]-hypoxanthine incorporation assay. IC50s are established for each strain (n ≥2) and compared to the IC50 of Dd2 (standard pan-resistant

Pf W2 = assay: microbe, parasite or virus in culture; type: cell-based; details: Plasmodium falciparum
Description: (§2) tested in duplicate from two independent experiments using a SYBR-Green based assay2.
(§3) (1 picture or pasted object on this page, not shown here)

Pf 7G8 = assay: microbe, parasite or virus in culture; type: cell-based; details: Plasmodium falciparum
Description: as §2, §3

Pf K1 = assay: microbe, parasite or virus in culture; type: cell-based; details: Plasmodium falciparum
Description: as §2, §3

Pf NF54 = assay: microbe, parasite or virus in culture; type: cell-based; details: Plasmodium falciparum
Description: as §2, §3

Pf SB1 = assay: microbe, parasite or virus in culture; type: cell-based; details: Plasmodium falciparum
Description: as §2, §3

Pf DD2 = assay: microbe, parasite or virus in culture; type: cell-based; details: Plasmodium falciparum
Description: as §2, §3

Dd2 bc-1 ELQ-300 = assay: [3H]-hypoxanthine incorporation assay, Dd2 bc-1 ELQ-300 resistant; type: cell-based, Plasmodium falciparum; details: Plasmodium falciparum, DD2
Experimental: as §1, with “Supplementary Table 3: Compound 9 and 12 retain their activity against Pf strains harbouring mutations to novel antimalarial agents in clinical development. Compound 9” for “9”, “pan-resistant […]” for “pan-resistant”

PfATP4 Cpd 3 = assay: [3H]-hypoxanthine incorporation assay, PfATP4 Cpd 3 resistant; type: cell-based; details: Plasmodium falciparum
Experimental: as §1, with “Supplementary Table 3: Compound 9 and 12 retain their activity against Pf strains harbouring mutations to novel antimalarial agents in clinical development. Compound 9” for “9”, “pan-resistant […]” for “pan-resistant”

Dd2 DHODH DSM265 = assay: [3H]-hypoxanthine incorporation assay, Dd2 DHODH DSM265 resistant; type: cell-based; details: Plasmodium falciparum
Experimental: as §1, with “Supplementary Table 3: Compound 9 and 12 retain their activity against Pf strains harbouring mutations to novel antimalarial agents in clinical development. Compound 9” for “9”, “pan-resistant […]” for “pan-resistant”

Cpd 4 Unpublished Target = assay: [3H]-hypoxanthine incorporation assay, Cpd 4 Unpublished Target resistant; type: cell-based; details: Plasmodium falciparum
Experimental: as §1, with “Supplementary Table 3: Compound 9 and 12 retain their activity against Pf strains harbouring mutations to novel antimalarial agents in clinical development. Compound 9” for “9”, “pan-resistant […]” for “pan-resistant”

Pf3D7^0087/N9 = assay: animal or person; type: in vivo, Plasmodium falciparum
Description: All animal studies were ethically reviewed and carried out in accordance with European Directive 86/609/EEC and the GSK Policy on the Care, Welfare and Treatment of Animals. During this experiment, female mice were used from the batch NSGJ 01/1 (The Jackson Laboratory, USA). The therapeutic efficacy of compound 12 against Pf3D7^0087/N9 was studied using a ‘4-day test’ reported earlier. Briefly, NODscidIL2Rγ^null mice engrafted with human erythrocytes were infected with 20 × 10^6 Pf-infected erythrocytes. Infections were performed by i.v. inoculation. All mice were randomly assigned to their corresponding treatment. The treatment started at day 3 and finished at day 6 after infection. The compound was administered orally as a suspension in 0.5% w/v hydroxypropyl methylcellulose (HPMC) with 0.1% v/v Tween 80, using an oral gavage at a maximum dose volume of 20 ml kg^−1. Vehicle alone was administered in untreated mice. In all cases, parasitemia was assessed in samples from peripheral blood obtained at days 3–7 after infection. A qualitative analysis of the effect of treatment on Pf3D7^0087/N9 was assessed by microscopy and flow cytometry. Fresh samples of peripheral blood from Pf-infected mice were stained with TER-119-Phycoerythrine (marker of murine erythrocytes) and SYTO-16 (nucleic acid dye) and then analysed by flow cytometry (FACS Calibur, BD). Microscopy analysis was performed with Giemsa-stained blood smears from samples taken at days 5 and 7 (48 and 96 h after starting treatment, respectively).
PK-PD model for the metabolite (compound 9) alone. Pharmacokinetic data from the Pf/SCID model was linked to efficacy using the following equation5.
Where P [log (total no. of parasites / mouse)], Kgro (growth rate constant), Pmax (log (maximum no. of parasites / mouse)), Kkill (maximum kill rate constant), H (Hill slope), EC50 (concentration required for achieving half maximal kill rate) and Ce (concentration of the drug in the effect compartment). Percent parasitemia values were converted into total number of parasites in mouse blood assuming […] (9.23 log10) RBCs per mouse. The lower limit of quantitation for % parasitemia was 0.01% or 5.23 log10. Effect compartment was used for modelling the delay observed in efficacy at a lower dose. […]

PfATP4 Cpd 2 = assay: [3H]-hypoxanthine incorporation assay, PfATP4 Cpd 2 resistant; type: cell-based; details: Plasmodium falciparum
Experimental: as §1, with “Supplementary Table 3: Compound 9 and 12 retain their activity against Pf strains harbouring mutations to novel antimalarial agents in clinical development. Compound 9” for “9”, “pan-resistant […]” for “pan-resistant”

[1] = PK in the blood of infected Pf/SCID mice; type: in vivo, mouse; details: for CL/F: SCID, mouse, whole blood
Experimental: Peripheral blood samples (25 μl) were taken at different times (0.25, 0.5, 1, 2, 4, 6, 8 and 23 h), mixed with 25 μl of H2O Mili-Q and immediately frozen on dry ice. The frozen samples were stored at −80 °C until analysis. Vehicle-treated mice experienced the same blood-sampling regimen. Blood samples were processed by liquid–liquid extraction by mixing 10 μl diluted blood with 180 μl AcN:MeOH (80:20; v-v) mixture. Quantitative analysis by Liquid chromatography-tandem mass spectrometry (LC-MS/MS) was performed using UPLC (Waters) and Sciex API4000. The lower limit of quantification in this assay was 0.005 μg ml^−1.

[2] = system: asexual blood stage of Pf; assay: Pf asexual blood stage potency (Pf IC50); type: cell-based, Plasmodium falciparum
Description: The TAPs series emerged from a high-throughput screen (HTS) of 500,000 compounds from the AstraZeneca corporate library against the asexual blood stage of Pf using a high-content image-based approach. The procedure for synthesis of compounds 1-6, 10, 11 using a scheme similar to Fig. 1 is provided in Supplementary Note 1. The initial hit provided multiple diversification points for a robust lead optimization campaign. […] Compounds with 2-pyridyl modification at the 2-amino position of pyrimidine core improved potency and solubility at the cost of potent activity against hERG and acetylcholine esterase (AChE; compounds 3-6; Table 1). […] The observed hERG and AChE selectivity improvement with 7 could be attributed to the polar nature of the pyrazole group and its role in reducing the pKa of the core pyrimidine ring. […] To assess the potential for cross-resistance, representative TAPs were screened against a panel of clinical isolates and in vitro-generated mutant strains displaying varying mechanisms of resistance to antimalarial agents currently in use and under development, respectively, (Supplementary Tables 1–3).

Dd2 PfATP4 NITD609 = assay: [3H]-hypoxanthine incorporation assay, Dd2 PfATP4 NITD609 resistant; type: cell-based; details: Plasmodium falciparum
Experimental: as §1, with “Supplementary Table 3: Compound 9 and 12 retain their activity against Pf strains harbouring mutations to novel antimalarial agents in clinical development. Compound 9” for “9”, “pan-resistant […]” for “pan-resistant”

Dd2 PI4K Cpd 1 = assay: [3H]-hypoxanthine incorporation assay, Dd2 PI4K Cpd 1 resistant; type: cell-based; details: Plasmodium falciparum
Experimental: as §1, with “Supplementary Table 3: Compound 9 and 12 retain their activity against Pf strains harbouring mutations to novel antimalarial agents in clinical development. Compound 9” for “9”, “pan-resistant […]” for “pan-resistant”

[3] = 10 mg kg-1, one compartment POPK model
[4] = 30 mg kg-1, one compartment POPK model

Cc1nc(Nc2ncc(N3CCNC(C)C3)c(Nc3cc(C)n(C)n3)n2)cc(C2CC2)c1F.Cl.Cl (stereo not shown) [compound 9, N2-(4-cyclopropyl-5-fluoro-6-methylpyridin-2-yl)-N4-(1,5-dimethyl-1H-pyrazol-3-yl)-5-(3-methylpiperazin-1-yl)pyrimidine-2,4-diamine dihydrochloride]
IC50 (Dd2): 6 nM
IC50 (Pf W2): 28.1 ± 8 nM
IC50 (Pf 7G8): 26.5 ± 5 nM
IC50 (Pf K1): 33.8 ± 5 nM
IC50 (Pf NF54): 18.5 ± 5 nM
IC50 (Pf SB1): 25.6 ± 13 nM
IC50 (Pf DD2): 19.6 ± 7 nM
IC50 (Dd2 bc-1 ELQ-300): 10 nM
IC50 (PfATP4 Cpd 3): 11 nM
IC50 (Dd2 DHODH DSM265): 9.1 nM
IC50 (Cpd 4 Unpublished Target): 9.4 nM
Kkill (maximum kill rate constant) (Pf3D7^0087/N9; PK-PD model for compound 9 alone): 0.2 h⁻¹
EC50 (Pf3D7^0087/N9; Plasmodium falciparum, in Mus musculus, read-out: EC50 (blood concentration for half-maximal kill rate)): 309 nM
Kkillm (Pf3D7^0087/N9; metabolite, Fixed): 0.2 h⁻¹
IC50 (PfATP4 Cpd 2): 11 nM
Ka [1, 3]: 0.29 h⁻¹
Ka [1, 4]: 0.62 h⁻¹
V/F [1, 4]: 53 L/kg
CL/F [1, 3]: 122 mL/min/kg
CL/F [1, 4]: 117 mL/min/kg
V/F ([1]; compound 9, 10 mg kg-1, one compartment POPK model): 70 L/kg
CLm ([1]; metabolite, Fixed): 1330 mL/min/kg
Ke0m ([1]; metabolite, Fixed): 0.06 h⁻¹
Vcm ([1]; metabolite, Fixed): 29 L/kg
IC50 ([2]; Plasmodium falciparum): 14 nM
improvement in Pf potency ([2]; compound 9 relative to compound 7): > 10 fold
IC50 (Dd2 PfATP4 NITD609): 8.6 nM
IC50 (Dd2 PI4K Cpd 1): 10 nM
